# Experimental data: patent US20260337246A1, “METHODS FOR TREATING OBESITY” (Zealand Pharma A/S, priority 2022, published 2026)
# Assay: Predicted half-life in humans
smiles,measurement,value
CC[C@H](C)[C@H](NC(=O)[C@H](Cc1ccccc1)NC(=O)[C@H](C)NC(=O)[C@H](CCC(N)=O)NC(=O)[C@H](C)NC(=O)[C@H](C)NC(=O)[C@H](CCCCNC(=O)COCCOCCNC(=O)COCCOCCNC(=O)CN1CCN(C(=O)CCCCCCCCCCCCCCCCCCC(=O)O)CC1)NC(=O)[C@H](CCCCN)NC(=O)[C@H](CC(=O)O)NC(=O)[C@H](CC(C)C)NC(=O)[C@H](CCC(=O)O)NC(=O)[C@@H](NC(=O)[C@H](CO)NC(=O)[C@H](Cc1ccc(O)cc1)NC(=O)[C@H](CC(=O)O)NC(=O)[C@H](CO)NC(=O)[C@@H](NC(=O)[C@H](Cc1ccccc1)NC(=O)[C@@H](NC(=O)CNC(=O)[C@H](CCC(=O)O)NC(=O)C(C)(C)NC(=O)[C@@H](N)Cc1ccc(O)cc1)[C@@H](C)O)[C@@H](C)CC)[C@@H](C)CC)C(=O)N[C@@H](CCC(=O)O)C(=O)N[C@@H](Cc1c[nH]c2ccccc12)C(=O)N[C@@H](CC(C)C)C(=O)N[C@@H](CC(C)C)C(=O)N[C@@H](C)C(=O)N[C@@H](CCC(N)=O)C(=O)NCC(=O)N1CCC[C@H]1C(=O)N[C@@H](CO)C(=O)N[C@@H](CO)C(=O)NCC(=O)N[C@@H](C)C(=O)N1CCC[C@H]1C(=O)N1CCC[C@H]1C(=O)N1CCC[C@H]1C(=O)N[C@@H](CO)C(N)=O [Compound 41],predicted half-life (in words),half-life supporting once-weekly dosing in humans
